# Assay results: ChEMBL document CHEMBL1201862, “PubChem BioAssay data set” (2004)
# Active and inactive are the calls of the source.
# Key:
# [1] = cytotoxicity toward DRD oncogenic fibroblasts, dose response, cell-based, non-viral oncogenic, luminescence (AID 1934); format: functional; conditions: Homo sapiens
# BJ [2] = assay: cells; format: functional, cell-based; conditions: Homo sapiens
# BJ [3] = assay: cytotoxicity toward BJ-TERT-LT-ST fibroblasts, dose response, cell-based, RAS-independent, luminescence (AID 1935); format: functional; conditions: Homo sapiens;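 also: BJ fibroblasts immortalized with TERT plus LT and ST oncogenes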
# BJ [4] = assay: cytotoxicity toward BJ-TERT fibroblasts, dose response, cell-based, RAS-independent, luminescence (AID 1933); format: functional; conditions: Homo sapiens
# [5] = biological target: T1, Heat shock factor protein 1 (Mus musculus, UniProt P38532); assay: inhibition of MG132-induced HSE-luciferase signal, confirmation, cell-based, NIH3T3, luminescence, dose retest (AID 2382); format: functional;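 also: NIH3T3 fibroblasts with HSF1-driven luciferase reporter stressed by proteasome inhibitor MG132; luminescence from HSF1-driven luciferase expression after 8 hours of MG132 stress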
# T1 sequence (P38532 whole entry): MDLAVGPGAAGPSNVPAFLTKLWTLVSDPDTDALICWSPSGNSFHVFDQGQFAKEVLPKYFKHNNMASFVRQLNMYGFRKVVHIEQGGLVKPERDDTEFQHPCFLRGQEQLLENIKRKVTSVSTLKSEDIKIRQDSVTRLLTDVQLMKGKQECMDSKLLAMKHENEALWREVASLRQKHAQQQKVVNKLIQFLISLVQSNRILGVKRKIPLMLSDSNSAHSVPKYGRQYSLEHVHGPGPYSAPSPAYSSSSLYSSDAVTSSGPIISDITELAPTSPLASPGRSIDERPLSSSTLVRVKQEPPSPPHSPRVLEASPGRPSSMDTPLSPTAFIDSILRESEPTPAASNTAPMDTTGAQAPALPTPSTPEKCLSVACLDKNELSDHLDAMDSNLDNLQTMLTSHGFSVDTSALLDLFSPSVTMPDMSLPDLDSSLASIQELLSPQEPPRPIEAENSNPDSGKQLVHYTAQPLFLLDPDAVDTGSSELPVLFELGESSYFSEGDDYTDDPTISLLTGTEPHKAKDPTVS
# [6] = biological target: T2, Polyadenylate-binding protein 1 (Homo sapiens, UniProt P11940); assay: PABP1 MLLE–PAM2 interaction inhibitors, dose response, miRNA deadenylation inhibitor project, biochemical, fluorescence polarization, Cy5-PAM2 peptide, secondary (AID 602260); format: functional; conditions: read-out: IC50_Mean
# H4 = assay: Luminescence Cell-Based Dose Response HTS to Identify Activators of 5'UTR Stem-Loop Driven Prion Protein mRNA Translation in H4 Neuroglioblastoma Cells. [Related pubchem assays: 1829 (Project Summary), 1814 (Primary HTS)]; format: functional; conditions: Homo sapiens
# [7] = Luminescence Cell-Based Dose Response HTS to Identify Activators of Luciferase Translation or Activity in H4 […] Cells. [Related pubchem assays: 1829 (Project Summary), 1814 (Primary HTS)]; format: functional
# [8] = biological target: T2, Polyadenylate-binding protein 1; assay: PABP1 MLLE–PAM2 binding inhibitor potency, dose response, biochemical, fluorescence polarization, FITC-PAM2 peptide (AID 602259); format: functional; conditions: read-out: IC50_Mean
# [9] = Luminescence Cell-Based Dose Confirmation HTS to Identify Activators of 5'UTR Stem-Loop Driven Alpha-Synuclein mRNA Translation in H4 Neuroglioblastoma Cells. [Related pubchem assays: 1829 (Project Summary), 1814 (Primary HTS)]; format: functional
# [10] = biological target: T3, Calpain-2 catalytic subunit (Sus scrofa, UniProt P43367); assay: pig calpain II inhibitor potency, dose response, biochemical, fluorogenic peptide substrate (AID 1420); format: functional
# T3 sequence (P43367 whole entry): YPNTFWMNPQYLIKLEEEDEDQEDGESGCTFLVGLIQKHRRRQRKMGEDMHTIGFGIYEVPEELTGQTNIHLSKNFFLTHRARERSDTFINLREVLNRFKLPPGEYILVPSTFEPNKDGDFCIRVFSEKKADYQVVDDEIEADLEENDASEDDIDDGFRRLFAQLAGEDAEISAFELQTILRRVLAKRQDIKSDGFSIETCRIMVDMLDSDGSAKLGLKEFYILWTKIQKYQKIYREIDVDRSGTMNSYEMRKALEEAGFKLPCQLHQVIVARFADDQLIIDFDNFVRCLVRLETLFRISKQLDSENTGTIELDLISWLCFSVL
# [11] = biological target: Induced myeloid leukemia cell differentiation protein Mcl-1 (Homo sapiens, UniProt Q07820); format: functional
# [12] = inhibitors of intracellular T. cruzi replication, confirmation, NIH3T3 host cells, beta-gal luminescence (AID 2044); format: functional, cell-based;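 also: intracellular parasites grown in NIH/3T3 mouse fibroblasts as host cells; luminescent beta-galactosidase reporter signal from transgenic T. cruzi replicating inside host cells; inhibitors lower the luminescence signal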
# [13] = cytotoxicity toward NIH3T3 fibroblasts, dose response, counter-screen, cell-based, ATP luminescence, mouse fibroblasts (AID 2010); format: functional;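 also: cells exposed to compound for about 90 hours before reading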
# [14] = Luminescence Cell-Based Dose Response HTS to Identify Inhibitors of 5'UTR Stem-Loop Driven Prion Protein mRNA Translation in H4 Neuroglioblastoma Cells. [Related pubchem assays: 1827 (Project Summary), 1813 (Primary HTS)]; format: functional
# [15] = biological target: T4, Carboxy-terminal domain RNA polymerase II polypeptide A small phosphatase 1 (Homo sapiens, UniProt Q9GZU7); assay: inhibitors of CTDSP1, concentration-response testing, biochemical assay, absorbance-based, actives from ultra-high-throughput screening (AID 540297); format: functional
# T4 sequence (Q9GZU7 whole entry): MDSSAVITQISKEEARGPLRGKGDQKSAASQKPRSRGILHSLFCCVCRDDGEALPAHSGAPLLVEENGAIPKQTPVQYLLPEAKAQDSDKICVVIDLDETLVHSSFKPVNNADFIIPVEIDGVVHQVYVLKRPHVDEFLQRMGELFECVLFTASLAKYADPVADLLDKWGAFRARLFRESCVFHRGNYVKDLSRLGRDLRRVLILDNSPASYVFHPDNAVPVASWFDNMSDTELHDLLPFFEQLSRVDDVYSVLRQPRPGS
# H9c2 = assay: cells; format: functional, cell-based; conditions: Rattus norvegicus, H9c2, Myocardium;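 also: confirmatory concentration-response retest of ultra-high-throughput screening hits for modulation of myocardial damage; cell death induced by hydrogen peroxide oxidative stress; compound pretreatment for 60 min then peroxide exposure for 2 h; potency is for protecting the cells against peroxide damage rather than for killing them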
# [16] = inhibitors of SNCA 5'UTR-driven reporter translation, confirmation, H4 neuroglioma cells, luminescence (AID 1988); format: functional, cell-based
# [17] = inhibitors of firefly luciferase expression or activity, dose response, H4 neuroglioma cells, luminescence (AID 1990); format: functional, cell-based
# Cytochrome P450 2C19 = Cytochrome P450 2C19 (Homo sapiens, UniProt P33261); assay: Cytochrome panel assay with activity outcomes. Panel member name: p450-cyp2c19 Compounds with AC50 equal or less than 10 uM are considered active; format: functional; conditions: read-out: AC50
# Protein RecA = biological target: T5, Protein RecA (Mycobacterium tuberculosis, UniProt P9WHJ3); assay: Fluorescence Cell-Free Homogeneous Dose Retest to Identify Inhibitors of RecA-Intein Splicing Activity. [Related pubchem assays (depositor defined):AID2097, AID2223, AID489010, AID492950]; format: functional
# T5 sequence (P9WHJ3 whole entry): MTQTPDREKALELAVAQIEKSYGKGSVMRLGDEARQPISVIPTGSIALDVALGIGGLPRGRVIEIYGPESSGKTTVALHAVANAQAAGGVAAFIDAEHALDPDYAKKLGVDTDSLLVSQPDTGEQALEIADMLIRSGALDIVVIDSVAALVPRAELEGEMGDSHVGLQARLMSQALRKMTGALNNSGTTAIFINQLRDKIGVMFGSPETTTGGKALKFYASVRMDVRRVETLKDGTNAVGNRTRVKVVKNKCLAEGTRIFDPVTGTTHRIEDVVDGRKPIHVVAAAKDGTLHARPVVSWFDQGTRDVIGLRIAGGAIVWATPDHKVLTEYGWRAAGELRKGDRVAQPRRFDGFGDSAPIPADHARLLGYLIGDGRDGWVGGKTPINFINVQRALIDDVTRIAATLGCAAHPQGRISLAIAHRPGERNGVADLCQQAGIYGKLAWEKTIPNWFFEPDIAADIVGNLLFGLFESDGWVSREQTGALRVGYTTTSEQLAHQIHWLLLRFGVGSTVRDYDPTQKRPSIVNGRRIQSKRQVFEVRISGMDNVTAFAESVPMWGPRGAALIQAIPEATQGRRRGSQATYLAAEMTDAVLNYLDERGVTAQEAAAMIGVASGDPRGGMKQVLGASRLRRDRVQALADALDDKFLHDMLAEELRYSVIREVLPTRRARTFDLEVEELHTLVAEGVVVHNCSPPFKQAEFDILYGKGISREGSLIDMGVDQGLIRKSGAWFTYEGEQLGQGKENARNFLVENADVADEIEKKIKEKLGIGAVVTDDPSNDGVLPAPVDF
# T2 sequence (P11940 whole entry): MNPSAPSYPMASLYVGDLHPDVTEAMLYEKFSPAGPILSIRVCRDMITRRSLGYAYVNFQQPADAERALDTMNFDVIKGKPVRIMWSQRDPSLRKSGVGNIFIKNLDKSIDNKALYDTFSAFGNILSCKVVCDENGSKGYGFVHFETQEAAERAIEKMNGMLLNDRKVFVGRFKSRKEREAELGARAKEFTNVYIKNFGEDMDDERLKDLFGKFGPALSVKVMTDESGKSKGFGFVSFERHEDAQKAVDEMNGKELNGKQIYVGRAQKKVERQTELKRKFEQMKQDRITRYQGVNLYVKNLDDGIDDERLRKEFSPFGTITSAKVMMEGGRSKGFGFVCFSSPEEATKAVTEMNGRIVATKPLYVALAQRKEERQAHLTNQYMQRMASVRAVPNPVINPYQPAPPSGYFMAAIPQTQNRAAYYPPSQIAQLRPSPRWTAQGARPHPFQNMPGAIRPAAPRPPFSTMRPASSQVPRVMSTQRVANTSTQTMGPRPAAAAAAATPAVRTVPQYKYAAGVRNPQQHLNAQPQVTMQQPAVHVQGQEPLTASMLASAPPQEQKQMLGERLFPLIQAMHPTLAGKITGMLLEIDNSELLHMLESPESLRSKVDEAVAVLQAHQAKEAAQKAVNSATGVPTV
# Induced myeloid leukemia cell differentiation protein Mcl-1, sequence (Q07820 whole entry): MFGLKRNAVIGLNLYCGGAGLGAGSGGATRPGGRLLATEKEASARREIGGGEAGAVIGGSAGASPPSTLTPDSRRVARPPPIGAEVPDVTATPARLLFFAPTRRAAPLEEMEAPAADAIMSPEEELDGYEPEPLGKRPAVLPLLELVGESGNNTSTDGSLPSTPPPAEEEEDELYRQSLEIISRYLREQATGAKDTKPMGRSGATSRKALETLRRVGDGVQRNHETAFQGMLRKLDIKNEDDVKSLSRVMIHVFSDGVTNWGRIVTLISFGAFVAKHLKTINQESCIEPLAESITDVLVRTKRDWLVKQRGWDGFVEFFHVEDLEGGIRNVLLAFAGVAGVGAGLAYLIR
# Cytochrome P450 2C19, sequence (P33261 whole entry): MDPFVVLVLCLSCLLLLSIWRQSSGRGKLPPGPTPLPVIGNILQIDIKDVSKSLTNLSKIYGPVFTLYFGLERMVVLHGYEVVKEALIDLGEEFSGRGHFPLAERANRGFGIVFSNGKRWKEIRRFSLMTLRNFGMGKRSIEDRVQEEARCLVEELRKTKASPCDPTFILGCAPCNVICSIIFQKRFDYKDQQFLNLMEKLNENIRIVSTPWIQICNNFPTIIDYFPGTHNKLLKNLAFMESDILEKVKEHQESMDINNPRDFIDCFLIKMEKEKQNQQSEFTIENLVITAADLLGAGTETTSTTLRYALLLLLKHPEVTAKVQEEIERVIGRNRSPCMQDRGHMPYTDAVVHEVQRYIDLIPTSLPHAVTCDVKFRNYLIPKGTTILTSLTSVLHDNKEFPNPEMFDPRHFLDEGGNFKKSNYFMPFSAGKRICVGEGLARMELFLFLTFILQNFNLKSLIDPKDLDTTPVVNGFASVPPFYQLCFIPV
structure (smiles),measurement,setting,value
O=C(CCl)Nc1ccccc1C(=O)c1ccccc1,EC50,[1],35.3 µM (active)
same,EC50,BJ [2],> 150 µM (not active)
same,EC50,BJ [3],> 150 µM (inconclusive)
same,EC50,BJ [4],> 150 µM (not active)
same,EC50,[5],> 195 µM (not active)
O=C(CSc1ncn(-c2ccccc2)n1)c1cccs1,IC50,[6],> 66 µM (inactive)
same,EC50,H4,> 120 µM (not active)
same,EC50,[7],25.5 µM (active)
same,IC50,[8],> 66 µM (inactive)
same,EC50,[9],255 nM (active)
O=C(Nc1ccc(Cl)c(Cl)c1)N1N=CCC1c1ccccc1 (stereo unspecified),IC50,[10],8.45 µM (not active)
CN1CCN(c2ccc([N+](=O)[O-])cc2/C=N/NC(=O)c2cccc([N+](=O)[O-])c2)CC1,IC50,[11],3.57 µM (active)
CC1=Nc2ccccc2N=C(NC(=O)CN2CCN(c3ccccc3)CC2)C1c1ccccc1 (stereo unspecified),EC50,[12],2.06 µM (active)
same,IC50,[10],> 50 µM (not active)
same,EC50,[13],> 30 µM (not active)
CC(NC(=O)CCc1nnc(-c2ccc(-c3ccccc3)cc2)o1)c1nccs1 (stereo unspecified),EC50,[14],10 µM (active)
COc1cc2c(C#CCO)c(-c3ccc(C#N)cc3)oc(=O)c2cc1OC,IC50,[15],8.45 µM (active)
Cc1cc(C(=O)N/N=C/c2cc(Br)ccc2OC(=O)c2ccccc2Cl)[nH]n1,IC50,H9c2,> 79 µM (inactive)
same,EC50,[16],> 120 µM (not active)
same,EC50,[14],18.8 µM (active)
same,EC50,[17],13.4 µM (active)
O=C(c1ccc2c(c1)OCO2)N1CCN(c2ccc(C(F)(F)F)cn2)CC1,IC50,[10],< 0.4 µM (not active)
O=C(COC(=O)/C=C/c1ccco1)Nc1ccc(F)cc1Cl,IC50,[15],36.6 µM (active)
C[n+]1cn(CC(O)COCc2ccccc2)c2ccccc21 (stereo unspecified),IC50,[15],10.8 µM (active)
same,AC50,Cytochrome P450 2C19,15.8 µM (inconclusive)
COc1ccc(N2CCN(C(=O)CCC(=O)c3cc(C)sc3C)CC2)cc1,IC50,[10],30.3 µM (not active)
O=C(CNc1ccc2ccccc2c1)N/N=C/C=C/c1cccc([N+](=O)[O-])c1,IC50,[11],6.79 µM (active)
N#C/C(=C\c1cccnc1)c1nc2ccccc2[nH]1,EC50,[1],38 µM (active)
same,EC50,BJ [2],> 150 µM (not active)
same,EC50,BJ [3],> 75 µM (not active)
same,EC50,BJ [4],23.5 µM (active)
COc1ccc(CC(=O)NCc2ccc(-n3cccc3)cc2)cc1OC,EC50,[16],6.37 µM (active)
same,EC50,[14],9.97 µM (active)
same,EC50,[17],> 120 µM (not active)
O=C(CCS(=O)(=O)c1ccc(Br)cc1)NCCC1=CCCCC1,IC50,[15],9.5 µM (active)
COc1ccccc1-c1cnnc(S)n1,EC50,Protein RecA,111 µM (active)
